In patent US6767549B2, “Ionic polymers as anti-infective agents” (Genzyme Corporation, priority 1996, dated 2004) one finds inhibition data, which are given here for 1 compound.

In the test the test system is C. parvum. Put plainly: In vitro activity against C. parvum infectivity in MDBK cell monolayers (indirect immunofluorescence assay). Type of test: cell-based. To be noted: Cryptosporidium parvum, 2 mg/mL, positive control drug, 48 hours. The protocol: Confluent MDBK cell monolayers were grown on 16 well slides, and infected with 5×10^5 of C. parvum oocysts per well. Various dilutions of the test reagents in dimethylsulfoxide (DMSO) were added to the monolayers and cultures were incubated at 37° C.(8% CO2) for 48 hours. The level of C. parvum infections was determined and analysed by an indirect immunofluorescence (IF) assay at 48 hours. Anti-C. parvum sporozoite rabbit serum (1:1000) was used as the primary antibody, and fluorscein-conjugated anti rabbit goat serum (1:100) was used as the secondary antibody. Each dilution was tested in quadruple, and each assay was performed at least two times. The monolayers were methanol fixed and, after IF labelling, the number of parasites observed in 10 high power fields (HPF) per well in each of the four wells per dilution was counted, statistically analysed and compared with infected wells which contained DMSO only. Paromomycin was used as the positive control drug.

Turning to `NC[C@@H]1O[C@H](O[C@H]2[C@@H](O)[C@H](O[C@@H]3[C@@H](O)[C@H](N)C[C@H](N)[C@H]3O[C@H]3O[C@H](CO)[C@@H](O)[C@H](O)[C@H]3N)O[C@@H]2CO)[C@H](N)[C@@H](O)[C@@H]1O` [paromomycin], the inhibition at 2000 µg/mL stood at 79.4%.

The term inhibition denotes the percentage by which the read-out fell short of the control.
